± gives the expanded uncertainty stated by the source.
Details: 101.33 kPa, Liquid

| Compound | mass density (273.15 K) [kg/m3] | mass density (278.15 K) [kg/m3] | mass density (283.15 K) [kg/m3] | mass density (288.15 K) [kg/m3] | mass density (293.15 K) [kg/m3] | mass density (298.15 K) [kg/m3] | mass density (303.15 K) [kg/m3] | mass density (308.15 K) [kg/m3] | mass density (313.15 K) [kg/m3] | mass density (318.15 K) [kg/m3] | mass density (323.15 K) [kg/m3] | mass density (328.15 K) [kg/m3] | mass density (333.15 K) [kg/m3] | mass density (338.15 K) [kg/m3] | mass density (343.15 K) [kg/m3] | mass density (348.15 K) [kg/m3] | mass density (353.15 K) [kg/m3] | mass density (358.15 K) [kg/m3] |
| --- | --- | --- | --- | --- | --- | --- | --- | --- | --- | --- | --- | --- | --- | --- | --- | --- | --- | --- |
| CCCCCCC [heptane] | 700.67 ± 0.62 | 696.57 ± 0.62 | 692.4 ± 0.63 | 688.2 ± 0.64 | 683.99 ± 0.64 | 679.75 ± 0.65 | 675.49 ± 0.66 | 671.19 ± 0.66 | 666.87 ± 0.67 | 662.52 ± 0.68 | 658.13 ± 0.68 | 653.71 ± 0.69 | 649.24 ± 0.7 | 644.74 ± 0.71 | 640.19 ± 0.71 | 635.6 ± 0.72 | 630.95 ± 0.73 | 626.26 ± 0.74 |
| CCCCCC [hexane] | 677.18 ± 0.66 | 672.79 ± 0.67 | 668.37 ± 0.67 | 663.91 ± 0.68 | 659.42 ± 0.69 | 654.89 ± 0.69 | 650.33 ± 0.7 | 645.73 ± 0.71 | 641.08 ± 0.72 | 636.38 ± 0.72 | 631.64 ± 0.73 | 626.84 ± 0.74 | 621.99 ± 0.75 | 617.07 ± 0.75 |  |  |  |  |
| CCCCC [pentane] | 645.5 ± 0.72 | 640.7 ± 0.72 | 635.9 ± 0.73 | 631.04 ± 0.74 | 626.12 ± 0.74 | 621.14 ± 0.75 | 616.11 ± 0.76 | 611.01 ± 0.77 |  |  |  |  |  |  |  |  |  |  |

From the NIST ThermoML archive (doi:10.1016/j.jct.2005.05.020)
